Experimental findings from US6818654B2, “Antibacterial compounds” (Abbott Laboratories, priority 2002, dated 2004) are described below.

For experiment [1], the system named is Quinoline-Resistant Streptococcus pneumoniae 7257. Put plainly: MIC, agar dilution, quinoline-resistant strain (code BB). In kind it is cell-based. Particulars: 35-37° C., 20-24 hours.
In experiment [2] the test system is Quinoline-Succeptable Streptococcus pneumoniae ATCC 6303. Put plainly: MIC, agar dilution, quinoline-susceptible strain (code AA). Type of experiment: cell-based. To be noted: ATCC6303, 35-37° C., 20-24 hours. The source says: Antibacterial activity of the compounds […] Committee for Clinical Laboratory Standards (1997), “Methods for dilution antimicrobial susceptibility tests for bacteria that grow aerobically,” approved standard M7-A4 (Wayne, Pa., USA). All strains tested were from the Abbott Laboratories culture collection and were either clinical isolates or reference strains obtained from the American Type Culture Collection (Manassas, Va., USA).

The target in experiment [3] is bacterial protein synthesis. Description: Translation assay, firefly luciferase reporter system with S30 Streptococcus pneumoniae extract. Type of experiment: biochemical. Particulars: S30 extract from quinoline-succeptable Streptococcus pneumoniae ATCC 46919; luciferase mRNA; read-out: IC50, concentration causing 50% inhibition of bacterial protein synthesis. The procedure: Bacterial protein synthesis inhibitory activity of the compounds and the aformentioned commercially-available antibacterials was determined by translation assays performed using the firefly luciferase reporter system described by Murray et al., (2001), “Staphylococcus aureus Cell Extract Transcription-Translation Assay: Firefly Luciferase Reporter System for Evaluating Protein Translation Inhibitors,” Antimicrob. Agents Chemother. 45(6): 1900-1904, replacing the Staphylococcus aureus S30 extract described therein with S30 Streptococcus pneumoniae extract from quinoline-succeptable Streptococcus pneumoniae ATCC 46919, and replacing plasmid coding for the luciferase gene with mRNA (encoding produced by in vitro transcription from the plasmid pAS10rbs3) which encoded the luciferase gene with an upstream Streptococcus pneumoniae promoter and Shine-Dalgarno site.

SMILES strings stand for the structures. ≈ marks a conversion by molar mass, not a printed value.

For `CCn1cc(C(=O)O)c(=O)c2cc(F)c(N3CCNCC3)cc21` [Norfloxacin], the values for the MIC in experiment [1] and in experiment [2] were 32 µg/mL (≈ 100 µM) and 1 µg/mL (≈ 3.13 µM), respectively.

In the case of `N[C@@H]1[C@H]2CN(c3nc4c(cc3F)c(=O)c(C(=O)O)cn4-c3ccc(F)cc3F)C[C@@H]12` [Trovafloxacin], the values for the MIC in experiment [1] and in experiment [2] were 4 µg/mL (≈ 9.61 µM) and 0.06 µg/mL (≈ 0.144 µM), respectively.

`CC(=O)NC[C@H]1CN(c2ccc(N3CCOCC3)c(F)c2)C(=O)O1` [Linezolid]: the MIC in experiment [1] was 0.5 µg/mL (≈ 1.48 µM); in experiment [2], 2 µg/mL (≈ 5.93 µM). Besides, in experiment [3], the IC50 is around 3000 nM.
